From patent US20130184310A1, “TREATMENT OF LUPUS ARTHRITIS USING LAQUINIMOD” (Teva Pharmaceutical Industries, Ltd., priority 2010, published 2013) come the findings set out here.

The test system of series [1] is MRL/lpr lupus mouse model. Put plainly: Non-GLP in vivo evaluation of laquinimod in the MRL/lpr lupus mouse model (Example 1.4). The following applies: for kidney glomerulonephritis (histopathology) / salivary gland inflammation (histopathological scoring): laquinimod 5 mg/kg p.o., MMF 100 mg/kg p.o., compared to vehicle. The procedure: This study evaluates the efficacy of laquinimod in the MRL/lpr lupus mouse model.
Animals were monitored until their urine proteinuria reached >200 mg/dL at which time they were enrolled in the study. Animals were dosed with either 1 or 5 mg/kg of laquinimod, p.o., 100 mg/kg mycophenolate mofetil (MMF, CellCept®) p.o., or vehicle (water DDW), p.o., daily except weekends.
Proteinuria, ankle and paw diameters, dsDNA autoantibody levels and survival were monitored during in life portion of the study. At termination, blood samples were harvested for determination of dsDNA autoantibody levels, spleens were harvested and weighed then processed to isolate splenocytes which were counted. Kidney, lung, skin, lymph node, salivary gland and joints were harvested, processed for histological examination and scored by a histopathologist blind to the treatments.

Series [2] concerns (NZBxNZW)F1 mice. In words: Survival dose response study of laquinimod in the (NZBxNZW)F1 model for SLE, 37 weeks (Example 1.2). The class given is in vivo, mouse. The procedure:
This was a survival dose response study to determine whether laquinimod is effective in suppressing the symptoms in (NZBxNZW)F1 mice. The positive control used was Cytoxan.
Seventy-one mice having spontaneous disease developed by the age of 7 months (as measured by proteinuria) were divided into 6 experimental groups (Water, CTX, Laquinimod 0.2 mg/kg, Laquinimod 1.0 mg/kg, Laquinimod 5.0 mg/kg, Laquinimod 25.0 mg/kg) according to their PU scores.
Water and Laquinimod were administered orally (200 μl/mouse) 5 days a week. CTX was administered intraperitonealy once weekly, (200 μl/mouse). Blood samples were collected on weeks 1, 5, 15 and 37. Serum samples were prepared for detection of anti-dsDNA antibodies. After 37 weeks (257 days) of treatment, mice were sacrificed.

The test system of series [3] is (NZBxNZW)F1 mice. In words: Confirmation of efficacy of laquinimod in the (NZBxNZW)F1 model for SLE, 13 weeks (Example 1.3). The class given is in vivo, mouse. The protocol: This study examined the effect of laquinimod (0.2 and 5 mg/kg) versus CTX and vehicle treated (NZBxNZZW)F1 mice. Seventy mice having spontaneous disease developed by the age of 7 months (as measured by proteinuria) were divided into 4 experimental groups (Water, CTX, Laquinimod 0.2 mg/kg, Laquinimod 5.0 mg/kg,) according to their PU scores. Water and Laquinimod were administered orally (200 μl/mouse) 5 days a week. CTX was administered intraperitonealy once weekly, (200 μl/mouse). Blood samples were collected on weeks 1, 5, and 11. Serum samples were prepared for detection of anti-dsDNA antibodies. After 13 weeks of treatment, mice were sacrificed and immune complex deposits in their kidneys were evaluated.

Series [4] relates to (NZBxNZW)F1 mouse model of SLE. Conditions: MTX 35 μg/mouse p.o. 3 times a week; for immune complex deposition (ICD) in kidney glomeruli: end of experiment (12 weeks) vs vehicle; for immune complex deposition (ICD) in kidney glomeruli / proteinuria (PU): laquinimod 25 mg/kg p.o. daily, CTX 25 mg/ig i.p. once weekly; for proteinuria (PU): week 12 observation vs vehicle (water).
Procedure: (NZBxNZW)F1 are lupus-prone mice that develop an SLE-like disease spontaneously including anti-dsDNA antibodies (Abs), proteinuria and Immune Complex Deposits (ICD).
In a number of studies, the effect of various doses of laquinimod in the (NZBxNZW)F1 model for SLE were assessed. The studies also included a negative control (water) and positive controls including cyclophosphamide (CTX) and methotrexate (MTX).
This study investigated the effect of laquinimod, an immunomodulator of SLE in a murine model of SLE and compared the treatment effect to reference substances CTX and MTX.
Laquinimod and reference compounds CTX and MTX were applied in therapeutic mode, starting the treatment at the time when the characteristic change of murine SLE model, proteinuria (PU) was present in >80% of animals, and the observation and treatment period following this was 12 weeks. Laquinimod was applied p.o. daily, in a dose of 25 mg/kg. CTX was applied once weekly in a dose of 25 mg/ig i.p. MTX was applied 3 times a week p.o. at 35 μg/mouse.
Also, body weight changes were recorded weekly and at the end of experiment both kidneys were preserved, one for possible conventional histology and one for immune complex detection *ICD) in glomeruli. Evaluation of ICD was performed by scoring and by image analysis.
80 animals were involved in the study.

The test system of series [5] is Systemic Lupus Erythematosus (SLE) patients with active lupus arthritis. Put plainly: Phase IIa randomized, double-blind, placebo-controlled clinical trial of laquinimod in lupus arthritis (Example 2). Conditions: daily oral 0.5 mg or 1 mg. The class given is in vivo, human. The procedure: A multicenter, randomized, double-blind, placebo controlled clinical trial is conducted to evaluate the safety, tolerability, biomarkers and clinical effect of laquinimod (0.5 mg/day and 1 mg/day) in Systemic Lupus Erythematosus (SLE) patients with active lupus arthritis.
Approximately 90 Systemic Lupus Erythematosus patients with active lupus arthritis are enrolled. (approximately 30 subjects per treatment arm). Drop-outs are not replaced.
The overall study duration is up to 20 weeks, with the screening period being up to 2 weeks, the treatment period being 12 weeks and the follow-up period being 4 weeks.
Capsules containing laquinimod 0.5 mg and/or matching placebo are administered orally once daily: • 1. Laquinimod 0.5 mg arm—1 capsule of laquinimod 0.5 mg and 1 matching placebo capsule. • 2. Laquinimod 1 mg arm—2 capsules of laquinimod 0.5 mg. • 3. Placebo arm—2 capsules of placebo.
This is a Phase IIa, randomized, double-blind, placebo-controlled, study to assess the safety, tolerability, pharmacokinetics, biomarkers and clinical effect of two doses of laquinimod in Systemic Lupus Erythematosus patients with active lupus arthritis. This study evaluates the safety, tolerability of two doses of laquinimod (0.5 mg and 1 mg/day) in Systemic Lupus Erythematosus patients with active lupus arthritis. This study also evaluates biomarkers and clinical effect of laquinimod (0.5 mg and 1 mg/day) in Systemic Lupus Erythematosus patients with active lupus arthritis.
Subjects are initially randomized in a 1:1 ratio into one of the following two treatment arms: • 1. Laquinimod 0.5 mg. • 2. Matching placebo.
Enrollment to the 1 mg laquinimod dose group is initiated following the approval of the study safety committee, based on data of at least 10 subjects who have completed at least 4 weeks of treatment. Upon approval, randomization into one of the following three treatment arms occurs in a ratio that allows for reaching an overall target enrollment of approximately 30 subjects per treatment arm. • 1. Laquinimod 0.5 mg. • 2. Laquinimod 1 mg. • 3. Matching placebo.
Scheduled in-clinic visits are conducted at screening, baseline and at weeks 2, 4, 8, 12 and 16.
Treatment with laquinimod/placebo is discontinued on visit week 12 and a follow-up/study completion visit is conducted at week 16. Subjects who early discontinued study drug prior to visit week 12 preferably attend a follow-up study completion visit within 4 weeks (28 days) of treatment termination visit.
During the study period the British Isles Lupus Assessment Group (BILAG) score, SLE Disease Activity Index (SLEDAI 2K), Swollen and Tender joint count, Patient Global Assessment score (PGA), Evaluator Global Assessment score (EGA) and Patient Pain assessment (PtP) are assessed in addition to routine safety laboratory and physical tests, PK analysis and disease related immunology tests/biomarkers.
Response Definitions • BILAG MSK response is defined as change from Musculoskeletal A or B at baseline to C or D at LOV. • BILAG Substantial Responder (SR) is defined as all systems at last observed value (LOV) are C or D/E providing at least one system is A or B at baseline. • SLEDAI 2K response—decrease in SLEDAI of at least 4 point compared to baseline • Medicinal/Interventional flare defined as any of the following • Steroid increase by at least 5 mg/day compared to previous dose or compared to baseline or any IV, IM or Intraarticular dose. • New continuous treatment (>3 days) or increase in dose of NSAIDs or COX2 inhibitors. • New treatment or dose increase with an immunosuppressive drug compared to previous dose or compared to baseline. • Treatment with biologic agents, IVIG or plasmapheresis. • New treatment or dose increase of antimalarial drugs compared to previous dose or compared to baseline.
Lupus Arthritis • 1. […]

Where [6] appears, read: laquinimod 5 mg/kg p.o. compared to vehicle.
[7] abbreviates: laquinimod low dose 0.2 mg/kg orally 5 days a week.
[8] abbreviates: study period, compared to placebo.

Turning to `CCN(C(=O)c1c(O)c2c(Cl)cccc2n(C)c1=O)c1ccccc1` [laquinimod], the “bone resorption (joint histopathology)” value in series [1] (both doses of laquinimod (1 and 5 mg/kg p.o.) compared to vehicle) was “Significant reductions”. Further, the “salivary gland inflammation score, higher dose vs lower dose” value in series [1] (laquinimod 5 mg/kg compared with 1 mg/kg) is on record as “significantly lower score”. Also, in series [1] (setting [6]), the “cartilage damage (joint histopathology)” value is “significant reduction”, the “joint inflammation (histopathology)” value is “significantly reduced” and the “splenocytes as percent of total spleen cells” value is given as “significant reduction”. In series [1], the “kidney glomerulonephritis (histopathology)” value is recorded as “significant reductions” and the “salivary gland inflammation (histopathological scoring)” value is listed as “significant reduction”. Also, the “measures during the in life phase (proteinuria, ankle and paw diameters, dsDNA autoantibody levels, survival)” value in series [1] (laquinimod 1 or 5 mg/kg p.o., trends not significant except for some sporadic time points) is “trend toward dose dependent efficacy”. Also, in the series on (NZBxNZW)F1 mice [2] (all doses of laquinimod (0.2, 1.0, 5.0, 25.0 mg/kg) orally 5 days a week, in comparison to vehicle), the progression of proteinuria entry is “abrogated the progression of proteinuria”. The survival entry in the series on (NZBxNZW)F1 mice [2] (all doses of laquinimod (0.2-25 mg/kg), 37 weeks of treatment) is “significant prolongation of survival”. For the same compound, the proteinuria entry in the series with (NZBxNZW)F1 mice [2] (laquinimod dose of 0.2 mg/kg orally 5 days a week) is recorded as “abrogated proteinuria but not to the same extent as compared to the higher doses”. The “proteinuria, compared with positive control CTX” value in the series with (NZBxNZW)F1 mice [2] (laquinimod doses of 1, 5 and 25 mg/kg orally 5 days a week) is given as “as effective as the positive control cyclophosphamide (CTX)”. Besides, in the series with (NZBxNZW)F1 mice [2] (serum, weeks 1, 5, 15 and 37, laquinimod 0.2-25 mg/kg), the anti-dsDNA levels result is on record as “dose dependent reduction in antibody levels over time”. Besides, the anti-dsDNA levels entry in the series with (NZBxNZW)F1 mice [3] (laquinimod 5 mg/kg orally 5 days a week) is given as “behaved similarly to the positive control CTX”. Further, the “immune complex deposits in kidneys” value with (NZBxNZW)F1 mice [3] (laquinimod 5 mg/kg orally 5 days a week, after 13 weeks) was “behaved similarly to the positive control CTX”. Further, in the series with (NZBxNZW)F1 mice [3] (laquinimod 0.2 and 5 mg/kg orally 5 days a week, 13 weeks), the “disease progression as measured by proteinuria” value was “abrogated disease progression”. Moreover, in the series on (NZBxNZW)F1 mice [3] (setting [7]), the “anti-dsDNA Ab titers” value was “did not inhibit” and the proteinuria result is reported as “prevented increased proteinuria”. Moreover, in the series with (NZBxNZW)F1 mice [3] (laquinimod low dose 0.2 mg/kg orally 5 days a week, after 13 weeks), the “ICD (immune complex deposits)” value is listed as “did not inhibit”. Besides, in series [4], the “immune complex deposition (ICD) in kidney glomeruli” value (from here on “immune complex deposition (ICD)”) is listed as “significantly inhibited” and the “proteinuria (PU)” value was “significantly diminished the proteinuria”. Also, in series [5] (compared to placebo), the tolerability entry is “well tolerated” and the toxicity result is on record as “no toxicity”. Also, in series [5] (study period), the “66 swollen/68 tender joint count (JC66/68)” value is on record as “reduces”, the “C-Reactive Protein level” value is on record as “lowers”, the “Disease Activity Score using 28 joint counts (DAS28)” value is “reduces” and the anti-dsDNA level result is on record as “lowers”. Besides, in series [5] (study period), the “physician global assessment (PGA) score” value is recorded as “reduces”, the serum chemokine level entry is given as “lowers” and the serum cytokine level entry is reported as “lowers”. Besides, in series [5] (setting [8]), the “BILAG MSK response” value is “improves”, the BILAG score entry is on record as “improves”, the swollen joint count entry is “reduces” and the tender joint count result is given as “reduces”.

On to `COc1c(C)c2c(c(O)c1C/C=C(\C)CCC(=O)OCCN1CCOCC1)C(=O)OC2` [MMF, mycophenolate mofetil, reference compound], for which the “lung BALT hyperplasia (histopathology)” value in series [1] (MMF 100 mg/kg p.o. vs vehicle) was “significant difference”. Moreover, in series [1], the “kidney glomerulonephritis (histopathology)” value is listed as “significant reductions” and the “salivary gland inflammation (histopathological scoring)” value is “significant reduction”.

In the case of `CN(Cc1cnc2nc(N)nc(N)c2n1)c1ccc(C(=O)N[C@@H](CCC(=O)O)C(=O)O)cc1` [MTX, methotrexate], the “animals died during the treatment period” value in series [4] (12 week treatment period, 80 animals in study) turned out to be 2. Besides, in series [4], the “immune complex deposition (ICD)” value is “failed to inhibit the symptoms” and the “proteinuria (PU)” value was “failed to inhibit the symptoms”.

In the case of `O=P1(N(CCCl)CCCl)NCCCO1` (stereo not drawn) [CTX, cyclophosphamide], in series [4], the “immune complex deposition (ICD)” value was “significantly inhibited” and the “proteinuria (PU)” value is listed as “significantly diminished the proteinuria”.
